Laboratory results: ChEMBL document CHEMBL1201862, “PubChem BioAssay data set” (2004)
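Five compound concentrations were applied to cells in 96-well plates for 48 hours; endpoints were derived by simple linear interpolation of the resulting dose-response curve. GI50 is the concentration that inhibits growth by half.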 Active and inactive are the calls of the source. Cut-off read from the data, not from the text of the source: active = GI50 up to about 1.1 µM and inactive = higher.

Tests used:
Experiment in all cases: inhibition of tumour cell growth, NCI panel, 48 h
786-0 = test system: 786-0
A498 = test system: A498
CAKI-1 = test system: CAKI-1
COLO 205 = test system: COLO 205
HCT-15 = test system: HCT-15
HL-60 = test system: HL-60
IGROV-1 = test system: IGROV-1
M14 = test system: M14
M19-MEL = test system: M19-MEL
MOLT-4 = test system: MOLT-4
Malme-3M = test system: Malme-3M
NCI-H226 = test system: NCI-H226
OVCAR-8 = test system: OVCAR-8
SF-268 = test system: SF-268
SK-MEL-28 = test system: SK-MEL-28
SNB-75 = test system: SNB-75
UO-31 = test system: UO-31
MCF7 = test system: MCF7
MDA-MB-231 = test system: MDA-MB-231
T47D = test system: T47D

Row | SMILES | GI50 (786-0) | GI50 (A498) | GI50 (CAKI-1) | GI50 (COLO 205) | GI50 (HCT-15) [µM] | GI50 (HL-60) | GI50 (IGROV-1) | GI50 (M14) | GI50 (M19-MEL) | GI50 (MOLT-4) | GI50 (Malme-3M) | GI50 (NCI-H226) | GI50 (OVCAR-8) | GI50 (SF-268) | GI50 (SK-MEL-28) | GI50 (SNB-75) | GI50 (UO-31) | GI50 (MCF7) | GI50 (MDA-MB-231) | GI50 (T47D)
1 | CN(C)NC1=C([N+](=O)[O-])C=NN(c2ccccc2)C1 | 1.77 µM (inactive) | 20.9 µM (inactive) | 1.95 µM (inactive) | 1.79 µM (inactive) | 1.55 | 2.04 µM (inactive) | 2.19 µM (inactive) | 1.82 µM (inactive) | 1.81 µM (inactive) | 2.09 µM (inactive) | 1.96 µM (inactive) | 3.84 µM (inactive) | 2.04 µM (inactive) | 1.85 µM (inactive) | 1.81 µM (inactive) | 1.73 µM (inactive) | 1.79 µM (inactive) | – | – | –
2 | Cc1cc2c3ccccc3n(C)c2c2c1C(=O)C=CC2=O | 5.78 µM (inactive) | 17.8 µM (inactive) | 14.3 µM (inactive) | 17.9 µM (inactive) | 9.33 | 5.24 µM (inactive) | 16.8 µM (inactive) | 17.8 µM (inactive) | 18.2 µM (inactive) | 6.76 µM (inactive) | 20 µM (inactive) | 21.2 µM (inactive) | 24.8 µM (inactive) | 17.2 µM (inactive) | 21.5 µM (inactive) | 27 µM (inactive) | 21.8 µM (inactive) | 4.3 µM (inactive) | 15.3 µM (inactive) | 3.39 µM (inactive)
3 | C=C=C(C(=O)OC)[S+]([O-])c1ccc([N+](=O)[O-])cc1[N+](=O)[O-] (stereo not given) | 39.7 µM (inactive) | > 100 µM (inactive) | 25.9 µM (inactive) | 23.5 µM (inactive) | 21.5 | 20.7 µM (inactive) | > 69.8 µM (inactive) | 30.7 µM (inactive) | 25.4 µM (inactive) | 20.7 µM (inactive) | > 56.1 µM (inactive) | 54.6 µM (inactive) | 25.2 µM (inactive) | 39 µM (inactive) | 34.7 µM (inactive) | 29 µM (inactive) | 43.4 µM (inactive) | – | – | –
4 | COc1ccc(N2C(=O)[C@H]3[C@H]4CC(C(C)(C)C)CC[C@H]4c4c(n(C)c5ccccc45)[C@H]3C2=O)cc1 (stereo not given in full) | > 100 µM (inactive) | > 46.5 µM (inactive) | > 100 µM (inactive) | > 100 µM (inactive) | 5.62 | > 90.6 µM (inactive) | > 100 µM (inactive) | > 100 µM (inactive) | < 0.01 µM (active) | > 100 µM (inactive) | > 100 µM (inactive) | > 100 µM (inactive) | > 100 µM (inactive) | > 100 µM (inactive) | > 100 µM (inactive) | > 87.7 µM (inactive) | > 100 µM (inactive) | > 46.5 µM (inactive) | > 100 µM (inactive) | > 100 µM (inactive)
5 | S=C1OC2C3C4CC5C3C(O1)C1C5C4C21 (stereo not given) | > 100 µM (inactive) | > 100 µM (inactive) | > 100 µM (inactive) | > 100 µM (inactive) | > 100 | > 100 µM (inactive) | > 100 µM (inactive) | > 100 µM (inactive) | > 100 µM (inactive) | > 100 µM (inactive) | > 100 µM (inactive) | > 100 µM (inactive) | > 100 µM (inactive) | > 100 µM (inactive) | > 100 µM (inactive) | > 100 µM (inactive) | > 100 µM (inactive) | – | – | –
6 | COc1ccc(OC)c(NC(=O)CCC/C(CC(=O)c2ccc(O)c(OC)c2)=N\NC(=O)C[N+](C)(C)C)c1 | > 100 µM (inactive) | > 100 µM (inactive) | > 100 µM (inactive) | > 100 µM (inactive) | > 100 | > 100 µM (inactive) | > 100 µM (inactive) | > 100 µM (inactive) | > 100 µM (inactive) | > 100 µM (inactive) | > 100 µM (inactive) | > 100 µM (inactive) | > 100 µM (inactive) | > 100 µM (inactive) | > 100 µM (inactive) | 84.7 µM (inactive) | > 100 µM (inactive) | – | – | –
7 | [O-][S+]1CSCS1 (stereo not given) | > 100 µM (inactive) | > 100 µM (inactive) | > 100 µM (inactive) | > 100 µM (inactive) | – | > 100 µM (inactive) | > 100 µM (inactive) | > 100 µM (inactive) | > 100 µM (inactive) | > 100 µM (inactive) | > 100 µM (inactive) | > 100 µM (inactive) | > 100 µM (inactive) | > 100 µM (inactive) | > 100 µM (inactive) | > 100 µM (inactive) | > 100 µM (inactive) | – | – | –
8 | Cc1cc(NS(=O)(=O)c2ccc(Nc3c4ccccc4nc4c(C(=O)Nc5ccc(S(=O)(=O)N=C(N)N)cc5)ccc(Cl)c34)cc2)no1 | 50.4 µM (inactive) | 44.6 µM (inactive) | 54.2 µM (inactive) | 83 µM (inactive) | – | 22.2 µM (inactive) | – | > 100 µM (inactive) | 39.8 µM (inactive) | 24.7 µM (inactive) | 46.7 µM (inactive) | 28.2 µM (inactive) | 19.3 µM (inactive) | 23.8 µM (inactive) | 54.5 µM (inactive) | 25.9 µM (inactive) | 34.5 µM (inactive) | – | – | –
9 | CC(=O)O[C@H]1C(=O)[C@@]2(C)C([C@H](OC(=O)c3ccccc3)[C@]3(O)C[C@H](OC(=O)[C@H](O)[C@@H](NC(=O)c4ccc(Cl)cc4)c4ccccc4)C(C)=C1C3(C)C)C1(OC(C)=O)CO[C@@H]1C[C@@H]2O (stereo not given in full) | 0.123 µM (active) | 0.322 µM (active) | 3.06 µM (inactive) | 0.0607 µM (active) | 1.36 | 0.0025 µM (active) | 0.0946 µM (active) | 0.0889 µM (active) | < 0.01 µM (active) | 21.3 µM (inactive) | 0.094 µM (active) | 0.173 µM (active) | 0.0778 µM (active) | 0.156 µM (active) | 0.114 µM (active) | 0.021 µM (active) | 11.1 µM (inactive) | 0.0181 µM (active) | 0.265 µM (active) | 0.82 µM (active)
10 | CC1(Cl)CC2OC3(Br)C=CC(C)(O)C2(CC1Br)C3(C)C (stereo not given) | > 100 µM (inactive) | > 100 µM (inactive) | > 100 µM (inactive) | > 100 µM (inactive) | > 100 | 51.1 µM (inactive) | > 100 µM (inactive) | > 100 µM (inactive) | > 100 µM (inactive) | > 100 µM (inactive) | > 100 µM (inactive) | > 100 µM (inactive) | > 100 µM (inactive) | > 100 µM (inactive) | > 100 µM (inactive) | 82.6 µM (inactive) | > 100 µM (inactive) | – | – | –
11 | Cc1cc([N+](=O)[O-])c(S(=O)(=O)c2ccccc2)c([N+](=O)[O-])c1 | 3.95 µM (inactive) | 18.2 µM (inactive) | 3.62 µM (inactive) | 9.51 µM (inactive) | 16 | 2.82 µM (inactive) | 12.6 µM (inactive) | 5.93 µM (inactive) | 11.7 µM (inactive) | 3.39 µM (inactive) | 13.6 µM (inactive) | 12.2 µM (inactive) | 6.9 µM (inactive) | 13.2 µM (inactive) | 18.9 µM (inactive) | 22.5 µM (inactive) | 16.9 µM (inactive) | – | – | –
12 | Cc1c(CCCl)c(Cl)n2c(nc3ccccc32)c1C#N | 0.463 µM (active) | 1.37 µM (inactive) | 0.597 µM (active) | 0.991 µM (active) | 0.644 | 0.107 µM (active) | 1.62 µM (inactive) | 1.14 µM (inactive) | 4.21 µM (inactive) | 0.172 µM (active) | 1.26 µM (inactive) | 1.38 µM (inactive) | 1.25 µM (inactive) | 1.49 µM (inactive) | 1.94 µM (inactive) | 3.38 µM (inactive) | 1.28 µM (inactive) | 0.653 µM (active) | 1.32 µM (inactive) | 1.38 µM (inactive)
13 | O=C(Nc1ccc(Br)cc1)C(=O)C(C(=O)c1ccccc1F)C1OC(=O)c2ccccc21 (stereo not given) | 22.5 µM (inactive) | 40.1 µM (inactive) | 37.8 µM (inactive) | 20.4 µM (inactive) | 28.8 | 23.7 µM (inactive) | 31.4 µM (inactive) | 16.5 µM (inactive) | 17.2 µM (inactive) | 25.3 µM (inactive) | 15.3 µM (inactive) | 3.48 µM (inactive) | 24.8 µM (inactive) | 24.9 µM (inactive) | 18.7 µM (inactive) | 19.7 µM (inactive) | 22.3 µM (inactive) | – | – | –
14 | O=C(O)CSc1nnc(-c2ccco2)[nH]1 | > 100 µM (inactive) | > 100 µM (inactive) | > 100 µM (inactive) | > 100 µM (inactive) | – | > 100 µM (inactive) | > 100 µM (inactive) | > 100 µM (inactive) | > 100 µM (inactive) | > 100 µM (inactive) | > 100 µM (inactive) | > 100 µM (inactive) | > 100 µM (inactive) | – | > 100 µM (inactive) | 95.5 µM (inactive) | > 100 µM (inactive) | – | – | –
15 | CN(C)c1nc(N(C)C)nc(N(C)C)n1 [ALTRETAMINE] | > 150 µM (inactive) | > 148 µM (inactive) | 130 µM (inactive) | > 148 µM (inactive) | > 122 | > 142 µM (inactive) | > 123 µM (inactive) | > 150 µM (inactive) | > 144 µM (inactive) | 133 µM (inactive) | > 147 µM (inactive) | > 150 µM (inactive) | > 150 µM (inactive) | > 150 µM (inactive) | > 150 µM (inactive) | 130 µM (inactive) | > 147 µM (inactive) | > 150 µM (inactive) | > 150 µM (inactive) | > 150 µM (inactive)
